Source: patent publication US20220347187A1, “HETEROCYCLIC COMPOUNDS AS KINASE INHIBITORS” (Nuvation Bio Inc., priority 2019, published 2022)
pIC50: −log10 of the molar value.

Tests used:
DU4475 = test: Cancer cell proliferation assay as a single agent (cell viability); assay type: cell-based; settings: Homo sapiens, DU-4475; Table 4; Rb negative breast carcinoma; 144H treatment
Experimental: (§1) The effects of test compounds were studied in two breast cancer cell lines of different subtype. The cancer cells (Table 3) were harvested during the logarithmic growth period and counted. Cell concentrations were adjusted to the appropriate number with respective medium and 90 μL cell suspensions were added to 96-well plates. After cells were seeded, the plates were shaken gently to distribute cells evenly and incubated at 37° C., 5% CO2 on day 1.
(§2) Cells were treated with test compounds at 7 to 9 concentrations within a desired concentration range (e.g. 1.1 nM-10 μM) on day 2 by series diluting the test compound stock solution (10 mM in DMSO) with culture medium. Treatment duration was 144H (with a medium change at 72H) for both MCF-7 and DU4475 cells. Cell viability was assessed by Cell Titer-Glo® as recommended by Promega (Cat. No.: G7572), or by resazurin assay (Sigma Aldrich, Cat. No.: R7017) post treatment.
(§3) Cell viability data were plotted using GraphPad Prism (GraphPad Software, Inc., San Diego, Calif.). In addition, a nonlinear regression model with a sigmoidal dose response and variable slope within GraphPad Prism was used to calculate the IC50 value of individual test compounds.

MCF-7 = test: as above; assay type: cell-based; settings: Homo sapiens, MCF7
Experimental: as §1, §2, §3

CDK4 = molecular target: T1, CDK4 (Homo sapiens, UniProt P11802); test: In vitro kinase inhibition, luminescence (ADP-Glo) with retinoblastoma as substrate; assay type: biochemical; settings: ATP 25 μM, 2H at room temperature
T1 construct: purchased Invitrogen PR8064 A
T1 sequence (P11802 whole entry): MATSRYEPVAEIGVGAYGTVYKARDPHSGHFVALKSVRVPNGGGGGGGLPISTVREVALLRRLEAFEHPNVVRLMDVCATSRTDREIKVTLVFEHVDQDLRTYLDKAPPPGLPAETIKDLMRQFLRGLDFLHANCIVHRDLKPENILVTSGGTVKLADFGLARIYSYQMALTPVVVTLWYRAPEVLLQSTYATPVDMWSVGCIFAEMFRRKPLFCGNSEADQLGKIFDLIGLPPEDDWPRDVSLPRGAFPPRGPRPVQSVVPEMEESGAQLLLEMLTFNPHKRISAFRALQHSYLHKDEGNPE
T1 sequence (P24385 whole entry partner): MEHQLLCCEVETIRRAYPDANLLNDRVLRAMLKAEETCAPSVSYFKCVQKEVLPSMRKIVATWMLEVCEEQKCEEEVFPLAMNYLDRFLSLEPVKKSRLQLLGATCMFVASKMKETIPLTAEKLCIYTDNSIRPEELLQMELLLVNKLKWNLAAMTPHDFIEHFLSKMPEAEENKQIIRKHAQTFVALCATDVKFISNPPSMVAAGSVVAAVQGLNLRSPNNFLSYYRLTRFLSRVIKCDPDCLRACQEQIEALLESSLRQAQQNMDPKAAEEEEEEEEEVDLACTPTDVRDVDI
Experimental: (§4) IC50 values of compounds against CDK4 and CDK6 were determined by luminescence using retinoblastoma as substrate. Kinase assays were performed in kinase buffer (#PV6135, Invitrogen, Life Technologies Grand Island. N.Y.) where total reaction volume was […] in 96-well half area white plates (#3693, Costar). One microliter of 25× test compounds at specific concentrations (e.g., final concentration range: 0.1 nM-200 nM) was mixed with 10 μL of 2.5× kinase (5 nM, CDK4 #PR8064 A and CDK6 #PR8422B, Invitrogen) solution and 14 μL of 4× mixed solution with retinoblastoma (1 μM, #12-439, EMD Millipore. Hayward, Calif.) and ATP (25 μM, #V7038, Promega, Madison, Wis.). The plates were covered and incubated for 2H at room temperature. At the end of incubation, 25 μL of stop solution—ADP Glo reagent (#V7002. Promega) was added. After incubation for 45 min at room temperature, 50 μL of detection reagent (##V7002, Promega) was added. Readings were taken at 15 min and 45 min incubation after detection reagent was added in a Synergy Neo Plate reader (BioTek, Winooski, Vt.) at single excitation of 340 nm and Dual emission at 495 nm and 520 nm respectively. The following equations were used in the CDK4 and CDK6 assay data analysis. Percent inhibition (100-% activity) was fitted to the “four-parameter logistic model” in XLfit for determination of IC50 values.
(§5) Percent conversion of enzyme=100−{(RLUNo Drug−No enzyme*100)/RLUNo drug+Enzyme} Equation 1:
(§6) Percent conversion at each data point=100−{(RLUAverage(Drug+enzyme)*100)/RLUNo drug+Enzyme} Equation 2:
(§7) Percent Inhibition=100*(% Conversioneach data point/% ConversionEnzyme) Equation 3: […]

CDK6 = molecular target: T2, CDK6 (Homo sapiens, UniProt Q00534); test: as above; assay type: biochemical; settings: ATP 25 μM, 2H at room temperature
T2 construct: purchased Invitrogen PR8422B
T2 sequence (Q00534 whole entry): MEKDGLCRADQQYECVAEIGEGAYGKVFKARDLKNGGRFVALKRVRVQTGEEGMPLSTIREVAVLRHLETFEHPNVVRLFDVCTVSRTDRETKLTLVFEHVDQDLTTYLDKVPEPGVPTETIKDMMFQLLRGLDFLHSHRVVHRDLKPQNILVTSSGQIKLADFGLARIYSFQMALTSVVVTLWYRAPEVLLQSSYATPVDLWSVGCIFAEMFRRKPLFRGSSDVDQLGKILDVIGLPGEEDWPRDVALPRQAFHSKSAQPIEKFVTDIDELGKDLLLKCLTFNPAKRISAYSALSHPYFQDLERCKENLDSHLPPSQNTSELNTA
T2 sequence (P24385 whole entry partner): as the sequence (P24385 whole entry partner) above
Experimental: as §4, §5, §6, §7

CDK1 (cyclin B) = molecular target: T3, CDK1 (cyclin B) (Homo sapiens, UniProt P06493); test: Z'-LYTE kinase assay; assay type: biochemical; settings: ATP 34 μM, 60 minutes
T3 construct: purchased Invitrogen Life Technologies (screening service)
T3 sequence (P06493 whole entry): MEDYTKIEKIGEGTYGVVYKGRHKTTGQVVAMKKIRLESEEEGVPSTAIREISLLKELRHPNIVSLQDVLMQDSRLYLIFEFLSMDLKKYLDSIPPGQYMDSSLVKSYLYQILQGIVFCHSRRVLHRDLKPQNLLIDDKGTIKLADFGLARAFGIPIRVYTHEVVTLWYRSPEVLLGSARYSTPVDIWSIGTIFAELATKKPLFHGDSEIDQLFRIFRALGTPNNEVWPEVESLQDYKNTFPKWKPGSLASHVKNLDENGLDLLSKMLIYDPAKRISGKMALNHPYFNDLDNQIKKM
T3 sequence (P14635 whole entry partner): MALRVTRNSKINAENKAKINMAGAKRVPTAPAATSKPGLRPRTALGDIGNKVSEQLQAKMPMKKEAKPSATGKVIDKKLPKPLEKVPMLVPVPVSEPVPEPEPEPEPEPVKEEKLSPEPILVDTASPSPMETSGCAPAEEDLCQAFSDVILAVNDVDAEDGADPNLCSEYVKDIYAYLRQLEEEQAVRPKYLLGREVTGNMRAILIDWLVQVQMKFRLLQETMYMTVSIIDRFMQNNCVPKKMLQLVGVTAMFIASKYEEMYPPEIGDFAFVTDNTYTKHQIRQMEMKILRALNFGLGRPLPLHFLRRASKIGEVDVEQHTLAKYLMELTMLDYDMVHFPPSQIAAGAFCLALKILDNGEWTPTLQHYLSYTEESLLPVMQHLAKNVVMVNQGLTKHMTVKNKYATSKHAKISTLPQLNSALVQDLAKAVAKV
Experimental: IC50 values of compounds against CDK1 (cyclin B) were determined by Z′-LYTE™. These screening assays were performed at Invitrogen Life Technologies (Grand Island, N.Y.) on a low volume NBS, black 384-well plate (#4514, Corning), 0.1 μL of 100× test compound in 100% DMSO (at specific solutions) was mixed with 2.4 μL of Kinase Buffer (50 mM HEPES pH 7.5, 0.01% BRIJ-35, 10 mM MgCl2, 1 mM EGTA), 5 μL of 2× Kinase (3.5-46.4 ng CDK1/cyclin B)/Peptide (2 μM Ser/Thr 18), and 2.5 μL of 4×ATP solution (34 μM). The plates were shaken for 30 seconds, and incubated for 60 minutes at room temperature. Development Reagent Solution (5 μL of 1:1024 dilution) was added to the plates followed with another 30-second plate shake, and the plates were further incubated at room temperature for one hour. The plates were read on fluorescence plate reader with Dual emission at 445 nm and 520 nm.
(§8) The following equations were used for Z′-LYTE™ Screening Assay Data Analysis. Percent inhibition (100-% activity) was fitted to the “four-parameter logistic model” in XLfit for determination of IC50 values.

CDK2 (cyclin A) = molecular target: T4, CDK2 (cyclin A) (Homo sapiens, UniProt P24941); test: Z'-LYTE kinase assay; assay type: biochemical; settings: ATP 31 μM, 60 minutes
T4 construct: purchased Invitrogen Life Technologies (screening service)
Experimental: IC50 values of compounds against CDK2 (cyclin A) were determined by Z′-LYTE™. These screening assays were performed at Invitrogen Life Technologies (Grand Island, N.Y.) on a low volume NBS, black 384-well plate (#4514. Corning), 0.1 μL of 100× test compound in 100% DMSO (at specific solutions) was mixed with 2.4 μL of Kinase Buffer (50 mM HEPES pH 7.5, 0.01% BRIJ-35, 10 mM MgCl2, 1 mM EGTA), 5 μL of 2× Kinase (1.22-10.3 ng CDK2/cyclin A)/Peptide (2 μM Ser/Thr 12), and 2.5 μL of 4×ATP solution (31 μM). The plates were shaken for 30 seconds, and incubated for 60 minutes at room temperature. Development Reagent Solution (5 μL of 1:1024 dilution) was added to the plates followed with another 30-second plate shake and the plates were further incubated at room temperature for one hour. The plates were read on fluorescence plate reader with Dual emission at 445 nm and 520 nm.
as §8

PI3Kδ = molecular target: T5, PI3Kδ (Homo sapiens, UniProt O00329); test: PI3Kδ kinase assay (ADP-Glo, Reaction Biology Corporation); assay type: biochemical
T5 construct: purchased Reaction Biology Corporation (service assay)
T5 sequence (O00329 whole entry): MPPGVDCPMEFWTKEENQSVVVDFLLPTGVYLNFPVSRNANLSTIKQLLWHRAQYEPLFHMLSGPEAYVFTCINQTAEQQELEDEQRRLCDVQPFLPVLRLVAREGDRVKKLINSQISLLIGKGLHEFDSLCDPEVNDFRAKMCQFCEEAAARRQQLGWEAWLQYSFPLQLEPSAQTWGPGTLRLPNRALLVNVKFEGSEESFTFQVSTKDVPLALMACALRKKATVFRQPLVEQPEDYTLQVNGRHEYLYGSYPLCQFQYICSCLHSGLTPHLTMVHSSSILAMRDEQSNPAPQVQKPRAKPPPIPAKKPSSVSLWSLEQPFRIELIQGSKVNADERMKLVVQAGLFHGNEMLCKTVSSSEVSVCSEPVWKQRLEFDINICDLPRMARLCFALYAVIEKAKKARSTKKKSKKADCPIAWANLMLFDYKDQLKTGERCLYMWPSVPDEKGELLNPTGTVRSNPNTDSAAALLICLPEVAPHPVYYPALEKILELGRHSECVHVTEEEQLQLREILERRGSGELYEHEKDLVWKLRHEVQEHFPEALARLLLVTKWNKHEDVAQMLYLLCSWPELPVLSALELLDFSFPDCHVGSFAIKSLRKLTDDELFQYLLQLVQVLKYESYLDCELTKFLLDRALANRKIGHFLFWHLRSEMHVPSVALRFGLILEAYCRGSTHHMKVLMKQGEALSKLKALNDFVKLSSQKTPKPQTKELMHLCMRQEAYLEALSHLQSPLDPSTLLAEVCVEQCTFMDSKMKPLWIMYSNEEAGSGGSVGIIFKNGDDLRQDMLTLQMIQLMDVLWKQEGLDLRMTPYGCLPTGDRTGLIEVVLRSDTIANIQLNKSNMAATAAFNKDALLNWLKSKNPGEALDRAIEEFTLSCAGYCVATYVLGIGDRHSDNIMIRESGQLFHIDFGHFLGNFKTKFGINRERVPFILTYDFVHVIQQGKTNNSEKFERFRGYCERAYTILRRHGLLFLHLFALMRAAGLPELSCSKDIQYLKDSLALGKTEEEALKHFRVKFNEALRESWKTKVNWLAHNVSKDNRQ
T5 sequence (P27986 whole entry partner): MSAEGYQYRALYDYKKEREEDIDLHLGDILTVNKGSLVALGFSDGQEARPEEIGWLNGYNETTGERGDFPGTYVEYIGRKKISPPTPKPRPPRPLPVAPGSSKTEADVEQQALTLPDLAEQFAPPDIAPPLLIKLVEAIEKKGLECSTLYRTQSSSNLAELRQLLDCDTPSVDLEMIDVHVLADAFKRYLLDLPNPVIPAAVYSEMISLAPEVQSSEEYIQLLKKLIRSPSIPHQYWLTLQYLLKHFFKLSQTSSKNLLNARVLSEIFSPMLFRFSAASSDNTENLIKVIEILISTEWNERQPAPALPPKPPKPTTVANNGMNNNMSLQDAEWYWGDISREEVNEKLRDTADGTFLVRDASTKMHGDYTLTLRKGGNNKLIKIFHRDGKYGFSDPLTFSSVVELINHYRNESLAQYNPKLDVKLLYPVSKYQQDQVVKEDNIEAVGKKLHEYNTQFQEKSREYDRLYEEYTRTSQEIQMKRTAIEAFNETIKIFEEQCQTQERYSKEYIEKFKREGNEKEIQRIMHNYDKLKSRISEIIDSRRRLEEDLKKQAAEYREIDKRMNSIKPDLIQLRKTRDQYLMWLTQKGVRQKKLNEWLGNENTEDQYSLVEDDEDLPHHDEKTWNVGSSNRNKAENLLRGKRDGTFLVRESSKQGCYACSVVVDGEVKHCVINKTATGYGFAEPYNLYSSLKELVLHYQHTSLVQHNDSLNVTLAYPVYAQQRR
Experimental: IC50 values of compounds against the PI3KS kinase were determined by an assay performed by Reaction Biology Corporation (Malvern, Pa.). Briefly, this assay was conducted in buffer (Tris-HCl 40 mM (pH7.5), Orthovanadate 3 mM, MgCl2 20 mM, DTT 2 mM, CHAPS 0.05%, DMSO 1%). PI3K8 kinase was added to the reaction solution and mixed gently. The test compounds in 100% DMSO (at specific solutions) were mixed with the kinase reaction mixture to achieve the final compounds at pre-defined concentrations (e.g., range—0.5 nM to 100 μM) by Acoustic technology (Echo550; nanoliter range). After incubating for 10 min at room temp, ATP was added into the reaction mixture to initiate the reaction followed by a 30-min incubation at 30° C. After quenching the reaction with ADP-Glo reagent, the plates were incubated for 40 min. The Detection Mixture was added, and the plate was incubated for an additional 30 min. At the end of incubation, luminescence was measured. For data analysis, the luminescence was converted into μM ADP production based on ADP standard curves. The nonlinear regression to obtain the standard curve and IC50 values was performed using GraphPad Prism (GraphPad Software. Inc., San Diego, Calif.).

MCF-7-PR = test: Cell viability in palbociclib-resistant cell line; assay type: cell-based
Experimental: as §2, §3
The effects of test compound in a palbociclib-resistant cell line and a parental, non-resistant cell line were compared. The palbociclib-resistant cell line (“MCF-7-PR”) was derived from the parental, non-resistant cell line (MCF-7 breast adenocarcinoma cells) by culture of cells over a period of three months in increasing concentrations of palbociclib, starting from about 350 nM and ending at about 850 nM, the final concentration at which they were then maintained in culture. […]

[1] = Table 4, Rb positive breast adenocarcinoma, 144H treatment

Structure (SMILES)	pIC50 (DU4475)	pIC50 (MCF-7; [1])	pIC50 (CDK4)	pIC50 (CDK6)	pIC50 (CDK1 (cyclin B))	pIC50 (CDK2 (cyclin A))	pIC50 (PI3Kδ)	pIC50 (MCF-7-PR; Table 5, palbociclib-resistant cell line)	pIC50 (MCF-7; Table 5, parental, non-resistant cell line)	resistance to palbociclib compared to parental MCF-7 cells, as increase in cell viability IC50 (MCF-7-PR; MCF-7-PR vs MCF-7)
CC(C)N1CCOc2c(F)cc(-c3nc(Nc4cccc(N5CCCNCC5)c4)ncc3F)cc21 [Compound 1, N-(3-(1,4-diazepan-1-yl)phenyl)-5-fluoro-4-(8-fluoro-4-isopropyl-3,4-dihydro-2H-benzo[b][1,4]oxazin-6-yl)pyrimidin-2-amine]	6.55	6.60	7.40	7.28	–	–	–	–	–	–
CC(C)N1CCOc2c(F)cc(-c3nc(Nc4cc(N5CCCNCC5)ccn4)ncc3F)cc21 [Compound 2, N-(4-(1,4-diazepan-1-yl)pyridin-2-yl)-5-fluoro-4-(8-fluoro-4-isopropyl-3,4-dihydro-2H-benzo[b][1,4]oxazin-6-yl)pyrimidin-2-amine]	5.79	6.08	< 6.70	< 6.70	5.55	5.91	< 4.30	–	–	–
CCN1CCC(COc2ccc(Nc3ncc(F)c(-c4cc(F)c5c(c4)N(C(C)C)CCO5)n3)nc2)CC1 [Compound 3, N-(5-((1-ethylpiperidin-4-yl)methoxy)pyridin-2-yl)-5-fluoro-4-(8-fluoro-4-isopropyl-3,4-dihydro-2H-benzo[b][1,4]oxazin-6-yl)pyrimidin-2-amine]	6.18	7.22	8.30	8.19	5.83	6.68	< 4.30	–	–	–
CCN1CCC(COc2ccc(Nc3cc(-c4cc(F)c5c(c4)N(C(C)C)CCO5)c(F)cn3)nc2)CC1 [Compound 4, N-(5-((1-ethylpiperidin-4-yl)methoxy)pyridin-2-yl)-5-fluoro-4-(8-fluoro-4-isopropyl-3,4-dihydro-2H-benzo[b][1,4]oxazin-6-yl)pyridin-2-amine]	6.56	6.67	8.15	7.92	6.70	7.12	< 4.52	–	–	–
CC(C)N1CCOc2c(F)cc(-c3nc(NC4CCN(S(C)(=O)=O)CC4)ncc3F)cc21 [Compound 5, 5-fluoro-4-(8-fluoro-4-isopropyl-3,4-dihydro-2H-benzo[b][1,4]oxazin-6-yl)-N-(1-(methylsulfonyl)piperidin-4-yl)pyrimidin-2-amine]	6.64	6.28	8.70	8.05	> 9.00	> 9.00	< 4.44	–	–	–
CC(=O)c1c(C)c2cnc(Nc3ccc(N4CCNCC4)cn3)nc2n(C2CCCC2)c1=O [palbociclib, reference compound]	–	–	–	–	–	–	–	–	–	at least 5 fold

The next lines start with results.

pIC50 (DU4475)	pIC50 (MCF-7; [1])	pIC50 (CDK4)	pIC50 (CDK6)	pIC50 (CDK1 (cyclin B))	pIC50 (CDK2 (cyclin A))	pIC50 (PI3Kδ)	pIC50 (MCF-7-PR; Table 5, palbociclib-resistant cell line)	Structure (SMILES)	pIC50 (MCF-7; Table 5, parental, non-resistant cell line)	resistance to palbociclib compared to parental MCF-7 cells, as increase in cell viability IC50 (MCF-7-PR; MCF-7-PR vs MCF-7)
6.89	7.10	7.80	7.35	7.03	7.35	–	7.14	Cc1nn(C2CCNCC2)cc1Nc1ncc(F)c(-c2cc(F)c3c(c2)N(C(C)C)CCO3)n1 [Compound 67, 5-fluoro-4-(8-fluoro-4-isopropyl-3,4-dihydro-2H-benzo[b][1,4]oxazin-6-yl)-N-(3-methyl-1-(piperidin-4-yl)-1H-pyrazol-4-yl)pyrimidin-2-amine]	7.40	–
5.44	6.41	8.00	7.59	5.34	5.61	–	–	CC(C)N1CCOc2c(F)cc(-c3nc(Nc4ccc(N5CCNC(=O)C5)cn4)ncc3F)cc21 [Compound 85, 4-(6-((5-fluoro-4-(8-fluoro-4-isopropyl-3,4-dihydro-2H-benzo[b][1,4]oxazin-6-yl)pyrimidin-2-yl)amino)pyridin-3-yl)piperazin-2-one]	–	–
5.94	6.80	9.00	8.52	5.83	6.56	–	–	CC(C)N1CCOc2c(F)cc(-c3nc(Nc4ccc(N5CCN(C)C(=O)C5)cn4)ncc3F)cc21 [Compound 86, 4-(6-((5-fluoro-4-(8-fluoro-4-isopropyl-3,4-dihydro-2H-benzo[b][1,4]oxazin-6-yl)pyrimidin-2-yl)amino)pyridin-3-yl)-1-methylpiperazin-2-one]	–	–
